The record followed here is US4124721A, “Pesticidal unsymmetrical bis-arylcarbamate sulfide compounds containing a 2,3, dehyrobenzofuran group” (priority 1977, dated 1978).

As a reminder, the LD50 is the dose at which mortality reaches 50%.

Holding throughout (assay type): in vivo
Data set [1] deals with bean aphid (Aphis fabae Scop.). Kind of data set: Bean Aphid Foliage Spray Test. The following applies: foliar, read-out: Aphid LD50. How it is done: (§1) Suspensions of the test compounds were prepared by dissolving one gram of compound in 50 milliliters of acetone in which had been dissolved 0.1 gram (10 percent of the weight of compound) of an alkylphenoxy polyethoxyethanol surfactant, as an emulsifying or dispersing agent. The resulting solution was mixed into 150 milliliters of water to give roughly 200 milliliters of a suspension containing the compound in finely divided form. The thusprepared stock suspension contained 0.5 percent by weight of compound. The test concentrations in parts per million by weight employed in the tests described hereinbelow were obtained by appropriate dilutions of the stock suspension with water. The test procedures were as follows:
Bean Aphid Foliage Spray Test
Adults and nymphal stages of the bean aphid (Aphis fabae Scop.) reared on potted dwarf nasturtium plants at 65°-70° F. and 50-70 percent relative humidity, constituted the test insects. For testing purposes, the number of aphids per pot was standardized to 100-150 by trimming plants containing excess aphids.
The test compounds were formulated by diluting the stock suspension with water to give a suspension containing 500 parts of test compound per million parts of final formulation.
The potted plants (one pot per compound tested) infested with 100-150 aphids, were placed on a revolving turntable and sprayed with 100-110 milliliters of test compound formulation by use of a DeVilbiss spray gun set at 40 psig. air pressure. This application, which lasted 25 seconds, was sufficient to wet the plants to run-off. As a control, 100-110 milliliters of a water-acetone-emulsifier solution containing no test compound were also sprayed on infested plants. After spraying, the pots were placed on their sides on a sheet of white standard mimeograph paper which had been previously ruled to facilitate counting. Temperature and humidity in the test room during the 24 hour holding period were 65°-70° F. and 50-70 percent, respectively. Aphids which fell onto the paper and were unable to remain standing after being uprighted were considered dead. Aphis remaining on the plants were observed closely for movement and those which were unable to move the length of the body upon stimulation by prodding were considered dead. Percent mortality was recorded for various concentration levels.
(§2) In these tests the pesticidal activity of the compounds against aphid, mite, Southern Armyworm, Bean Beetle and House Fly was rated as follows:
(§3) Dashes indicate no test conducted.
(§4) The results set forth in TABLE I clearly show the broad spectrum pesticidal activity of the compounds of this invention, as well as their reduced mammalian toxicity. It will be understood that the insect and mite species employed in the above tests are merely representative of a wide variety of pests that can be controlled through the use of the compounds of this invention. A series of comparative tests were conducted to evaluate the relative biological properties of the compounds of the invention and certain prior art compounds. The test procedures employed are identical to those discussed above. The results are reported in the parts per million of the compound required for a 50% kill (LD50).

The test system of data set [2] is southern armyworm (Prodenia eridania, (Cram.)). Description: Southern Armyworm Leaf Spray Test. The following applies: Spodoptera eridania, read-out: Southern Armyworm LD50. On the procedure:
as §1
Southern Armyworm Leaf Spray Test
Larvae of the southern armyworm (Prodenia eridania, (Cram.)), reared on Tendergreen bean plants at a temperature of 80°±5° F. and a relative humidity of 50±5 percent, constituted the test insects.
The test compounds were formulated by diluting the stock suspension with water to given a suspension containing 500 parts of test compound per million parts of final formulation. Potted Tendergreen bean plants of standard height and age were placed on a revolving turntable and sprayed with 100-110 milliliters of test compound formulation by use of a DeVilbiss spray gun set at 10 psig air pressure. This application, which lasted 25 seconds, was sufficient to wet plants to run-off. As a control, 100-110 milliliters of a water-acetone-emulsifier solution containing no test compound were also sprayed on infested plants. When dry, the paired leaves were separated and each one was placed in a 9 centimeter Petri dish lined with moistened filter paper. Five randomly selected larvae were introduced into each dish and the dishes were closed. The closed dishes were labeled and held at 80°-85° F. for three days. Although the larvae could easily consume the whole leaf within 24 hours, no more food was added. Larvae which were unable to move the length of the body, even upon stimulation by prodding, were considered dead. Percent mortality was recorded for various concentration levels.
as §2, §3, §4

In data set [3] the test system is Mexican bean beetle (Epilachna varivestis, Muls.). Description: Mexican Bean Beetle Leaf Spray Test. The following applies: read-out: Mexican Bean Beetle LD50. On the procedure:
as §1
Mexican Bean Beetle Leaf Spray Test
Fourth instar larvae of the Mexican bean beetle Epilachna varivestis, Muls.), reared on Tendergreen bean plants at a temperature of 80°±5° F. and 50±5 percent relative humidity, were the test insects.
The test compounds were formulated by diluting the stock suspension with water to give a suspension containing 500 parts of test compound per million parts of final formulation. Potted Tendergreen bean plants of standard height and age were placed on a revolving turntable and sprayed with 100-110 milliliters of test compound formulation by use of a DeVilbiss spray gun set at 10 psig air pressure. This application, which lasted 25 seconds, was sufficient to wet plants to run-off. As a control, 100-110 milliliters of a water-acetone-emulsifier solution containing no test compound were also sprayed on infested plants. When dry, the paired leaves were separated and each was placed in a 9 centimeter Petri dish lined with moistened filter paper. Five randomly selected larvae were introduced into each dish, and the dishes were closed. The closed dishes were labeled and held at a temperature of 80°±5° F. for three days. Although the larvae could easily consume the leaf within 24 to 48 hours, no more food was added. Larvae which were unable to move the length of the body, even upon stimulation, were considered dead.
as §2, §3, §4

The test system of data set [4] is house flies (Musca domestica, L.). Kind of data set: Fly Bait Test. The settings on record: read-out: Housefly LD50. How it is done:
as §1
Four to six day old adult house flies (Musca domestica, L.) reared according to the specifications of the Chemical Specialties Manufacturing Association (Blue Book, McNair-Dorland Co., N.Y. 1954; pages 243-244, 261) under controlled conditions of 80°±5° F. and 50±5 percent relative humidity, were the test insects. The flies were immobilized by anesthetizing with carbon dioxide and twenty five immobilized individuals, males and females, were transferred to a cage consisting of a standard food strainer about five inches in diameter which was inverted over a wrapping-paper-covered surface. The test compounds were formulated by diluting the stock suspension with a 10 percent (by weight) sugar solution to give a suspension containing 500 parts of test compound per million parts of final formulation, by weight. Ten milliliters of the test formulation were added to a souffle cup containing a one-inch square of an absorbent cotton pad. This bait cup was introduced and centered on the blotting paper under the food strainer prior to admitting the anesthetized flies. The caged flies were allowed to feed on the bait for 24 hours, at a temperature of 80°±5° F. and the relative humidity of 50±5 percent.
as §2, §3, §4

The nature of data set [5]: peroral toxicity to mammals (rat LD50). The following applies: rat, in vivo, po, rat. On the procedure:
(§5) Certain of these compositions were also evaluated to determine their peroral toxicity to mammals. The animal selected for this experiment was the rat. The test results obtained are expressed in terms of the number of milligrams of compositions per kilogram of weight of the animal required to achieve a mortality rate of 50 percent (LD50).
as §4

For a further data set, the system named is rat. Description: peroral toxicity to mammals (rat LD50). The following applies: for times less toxic to mammals than compound 2: rat LD50 relative to compound 2; for times less toxic to mammals than compound 1: rat LD50 relative to compound 1. How it is done:
as §5, §4

[6] abbreviates: peroral, mortality rate of 50 percent, read-out: Rat LD50 (Table I).
[7] abbreviates: comparative test, read-out: Rat LD50 (Table II).
The mark [8] stands for this setting: concentration required for a 50% kill, comparative test.

In brackets after ≈: the same amount, converted by molar mass. Like-named read-outs stand apart in the source and are kept apart here.

As to `CN(SN(C)C(=O)Oc1cccc2c1OC(C)(C)C2)C(=O)Oc1ccc(C(C)(C)C)cc1` [Compound 4, [2,2-Dimethyl-2,3-dihydro-7-benzofuranyl methylcarbamate]N-[4-t-butylphenylmethylcarbamate]sulfide], the LC50 in data set [1] was 2 µg/mL (≈ 4.36 µM); in data set [2], 23 µg/mL (≈ 50.2 µM); in data set [3] it was 18 µg/mL (≈ 39.3 µM); in data set [4] it was 17 µg/mL (≈ 37.1 µM). Moreover, the 50% lethal dose (LD50) in data set [5] (setting [6]) and in data set [5] (setting [7]) was 45 mg/kg in each case. In addition, in the data set with rat (rat LD50, printed relative to compound 2), the “times less toxic to mammals as compound 2 (first of the two statements for compound 4)” value is on record as “nine”. The “times less toxic to mammals than compound 2” value with rat is listed as “seven”.
In the case of `CC(C)c1cccc(OC(=O)N(C)SN(C)C(=O)Oc2cccc3c2OC(C)(C)C3)c1` [Compound 3, [2,2-Dimethyl-2,3-dihydro-7-benzofuranyl methylcarbamate]N-[3-isopropylphenyl methylcarbamate]sulfide], the LC50 in data set [1] came to 1 µg/mL (≈ 2.25 µM); in data set [2] it was 20 µg/mL (≈ 45 µM); in data set [3] it was 3 µg/mL (≈ 6.75 µM); in data set [4] it was 22 µg/mL (≈ 49.5 µM). The LD50 in data set [5] (setting [6]) and in data set [5] (setting [7]) was 80 mg/kg in each case. For the same molecule, the “times less toxic to mammals than compound 1” value in the data set with rat is listed as “at least 16 times”. Moreover, the “times less toxic to mammals than compound 2” value in the data set on rat is given as “at least 13 times”.
With `CNC(=O)Oc1cccc2c1OC(C)(C)C2` [Compound 1, 2,3-dihydro-2,2-dimethyl-7-benzofuranyl methyl carbamate, reference compound], the LC50 in data set [1] (setting [8]) came to 2 µg/mL (≈ 9.04 µM); in data set [2] (setting [8]), 90 µg/mL (≈ 407 µM); in data set [3] (setting [8]), 12 µg/mL (≈ 54.2 µM); in data set [4] (setting [8]), 12 µg/mL (≈ 54.2 µM). In addition, the LD50 in data set [5] (setting [7]) came to 5 mg/kg.
On to `CN(SN(C)C(=O)Oc1cccc2c1OC(C)(C)C2)C(=O)Oc1ccc([N+](=O)[O-])cc1` [Compound 5], for which the LC50 was determined as 2 µg/mL (≈ 4.47 µM) in data set [1], 20 µg/mL (≈ 44.7 µM) in data set [2], 4 µg/mL (≈ 8.94 µM) in data set [3] and 45 µg/mL (≈ 101 µM) in data set [4]. In addition, the LD50 in data set [5] (setting [7]) was 25.2 mg/kg. Moreover, in the data set on rat, the “times less toxic to mammals than compound 1” value is given as “five”. In the data set on rat, the “times less toxic to mammals than compound 2” value is reported as “four”.
As to `CN(SN(C)C(=O)Oc1cccc2c1OC(C)(C)C2)C(=O)Oc1ccc([N+](=O)[O-])cc1` [[2,2-Dimethyl-2,3-dihydro-7-benzofuranyl methylcarbamate]N-(4-nitrophenyl methylcarbamate]sulfide], the LD50 in data set [5] (setting [6]) was determined as 25 mg/kg.
On to `CSc1ccc(OC(=O)N(C)SN(C)C(=O)Oc2cccc3c2OC(C)(C)C3)cc1C` [[2,2-Dimethyl-2,3-dihydro-7-benzofuranylmethylcarbamate]N-[3-methyl-4-methylthiophenyl methylcarbamate]sulfide], for which, in data set [5] (setting [6]), the 50% lethal dose (LD50) was found to be 18 mg/kg.
As for `CN(SN(C)C(=O)Oc1cccc2c1OC(C)(C)C2)C(=O)Oc1cccc2c1OC(C)(C)C2` [Compound 2, reference compound], the LC50 in data set [1] was 1 µg/mL (≈ 2.12 µM); in data set [2] it was 13 µg/mL (≈ 27.5 µM); in data set [3] it was 2 µg/mL (≈ 4.23 µM); in data set [4], 30 µg/mL (≈ 63.5 µM). Further, the LD50 in data set [5] (setting [7]) was 6.3 mg/kg.
